Results reported in patent publication US11166460B2, “α-amino acrylate microbicide, and preparation method therefor and uses thereof” (priority 2017, dated 2021).
Read-outs that look alike come from different tables or passages of the source.

How the values were obtained:
[1] = tested on: tobacco mosaic virus (TMV); assay: Anti-TMV protective activity (protection mode), live friction inoculation on tobacco seedlings; type: in vivo; conditions: Tobacco mosaic virus, read-out: Anti-TMV activity, Protection effect (inhibition)
Alternaria solani = assay: Fungicidal activity, fungi growth rate method, AS; type: cell-based; conditions: Alternaria solani, 50 μg/mL
[2] = tested on: Phytophthora infestans (Mont) de Bary; assay: microbe, parasite or virus in culture; type: cell-based; conditions: Phytophthora infestans
Rhizoctonia cerealis = assay: Fungicidal activity, fungi growth rate method, RC; type: cell-based; conditions: Ceratobasidium cereale, 50 μg/mL
[3] = tested on: tobacco mosaic virus (TMV); assay: Anti-TMV inactivation activity (inactivation mode), compound mixed with TMV before inoculation of tobacco leaves; type: in vivo; conditions: Tobacco mosaic virus, read-out: Anti-TMV activity, Inactivation effect (inhibition)
Physalospora piricola = assay: Fungicidal activity, fungi growth rate method, PP; type: cell-based; conditions: 50 μg/mL; read-out: Fungicidal activity, inhibition, PP
Sclerotinia sclerotiorum = assay: microbe, parasite or virus in culture; type: cell-based; conditions: Sclerotinia sclerotiorum, 50 μg/mL
Cercospora arachidicola = assay: Fungicidal activity, fungi growth rate method, CA; type: cell-based; conditions: Mycosphaerella arachidis; 50 μg/mL; read-out: Fungicidal activity, inhibition, CA
[4] = tested on: tobacco mosaic virus (TMV); assay: Anti-TMV inducing activity (induction mode), tobacco seedlings; type: in vivo; conditions: Tobacco mosaic virus, read-out: Anti-TMV activity, Induction effect (inhibition), 100 μg/mL, tobacco seedlings
wheat Gibberella zeae = assay: microbe, parasite or virus in culture; type: cell-based; conditions: Fusarium graminearum
Botrytis cinerea = assay: Fungicidal activity, fungi growth rate method, BC; type: cell-based; conditions: Botrytis cinerea, 50 μg/mL
Pellicularia sasakii = assay: Fungicidal activity, fungi growth rate method, PS; type: cell-based; conditions: 50 μg/mL; read-out: Fungicidal activity, inhibition, PS
[5] = tested on: tobacco mosaic virus (TMV); assay: Anti-TMV curative activity (treatment mode), live friction inoculation on tobacco seedlings; type: in vivo; conditions: Tobacco mosaic virus, read-out: Anti-TMV activity, Curative effect (inhibition), 100 μg/mL, tobacco seedlings, checked on seventh day
[6] = read-out: Fungicidal activity, inhibition, AS
[7] = read-out: Fungicidal activity, inhibition, PI
[8] = read-out: Fungicidal activity, inhibition, RC
[9] = read-out: Fungicidal activity, inhibition, SS
[10] = read-out: Fungicidal activity, inhibition, GZ
[11] = read-out: Fungicidal activity, inhibition, BC
[12] = read-out: Fungicidal activity (inhibition) against SS: Sclerotinia sclerotiorum
[13] = read-out: Fungicidal activity (inhibition) against GZ: wheat Gibberella zeae
[14] = read-out: Fungicidal activity (inhibition) against PI: Phytophthora infestans (Mont) de Bary
[15] = read-out: Fungicidal activity (inhibition) against BC: Botrytis cinerea

Row | SMILES | inhibition at 100 µg/mL [1] | inhibition at 50 µg/mL (Alternaria solani; [6]) | melting point | inhibition at 50 µg/mL [2, 7] | inhibition at 50 µg/mL (Rhizoctonia cerealis; [8]) | inhibition at 100 µg/mL [3] | inhibition at 50 µg/mL (Physalospora piricola) | inhibition at 50 µg/mL (Sclerotinia sclerotiorum; [9]) | inhibition at 50 µg/mL (Cercospora arachidicola) | inhibition at 100 µg/mL [4] | inhibition at 50 µg/mL (wheat Gibberella zeae; [10]) | inhibition at 50 µg/mL (Botrytis cinerea; [11]) | inhibition at 50 µg/mL (Pellicularia sasakii) | inhibition at 100 µg/mL [5] | inhibition at 50 µg/mL (Sclerotinia sclerotiorum; [12]) | inhibition at 50 µg/mL (wheat Gibberella zeae; [13]) | inhibition at 50 µg/mL [2, 14] | inhibition at 50 µg/mL (Rhizoctonia cerealis; read-out: Fungicidal activity (inhibition) against RC: Rhizoctonia cerealis) | inhibition at 50 µg/mL (Botrytis cinerea; [15]) | inhibition at 50 µg/mL (Alternaria solani; read-out: Fungicidal activity (inhibition) against AS: Alternaria solani)
1 | O=C(N/C(=C\c1ccco1)C(=O)N1CCC(O)(c2ccc(Br)cc2)CC1)C1CCCCC1 [Compound 63, (Z)-N-[1-[[4-(4-bromophenyl)-4-hydroxy-1-piperidinyl]carbonyl]-2-(2-furanyl)ethenyl]cyclohexanecarboxamide] | 53% | 29% | 121 to 123 °C | 21% | 21% | 50% | 18% | 44% | 24% | 9% | 57% | 35% | 14% | 36% | – | – | – | – | – | –
2 | CC(C)(C)OC(=O)N1CCC(c2nc(C(=O)NCC(=O)O)cs2)CC1 [Compound 65, N-[[4-[2-[4-(1-Boc-piperidine)]thiazol]]formyl]ethanoic acid] | 39% | 9% | 183 to 185 °C | 18% | 10% | 40% | 3% | 67% | 10% | 38% | 16% | 10% | 9% | 0% | – | – | – | – | – | –
3 | O=C(O)/C(=C/c1ccccc1)NC(=O)C1CC1 [Compound 67, (Z)-2-cyclopropanoylamino-3-phenylpropenoic acid] | 78% | 20% | 193 to 195 °C | 13% | 10% | 57% | 3% | 67% | 15% | 34% | 23% | 19% | 6% | 52% | – | – | – | – | – | –
4 | O=C(O)/C(=C/c1ccccc1)NC(=O)c1ccc(C(F)(F)F)cc1 [Compound 68, (Z)-2-[4-(trifluoromethyl)benzoylamino]-3-phenylpropenoic acid] | 37% | 13% | 184 to 186 °C | 18% | 9% | 3% | 7% | 73% | 12% | 34% | 17% | 20% | 13% | 0% | 60 to 80% | – | – | – | – | –
5 | O=C(O)/C(=C/c1ccccc1)NC(=O)c1cccs1 [Compound 69, (Z)-2-(2-thiophanoylamino)-3-phenylpropenoic acid] | 27% | 17% | 221 to 223 °C | 17% | 10% | 1% | 7% | 78% | 16% | 45% | 19% | 7% | 6% | 0% | 60 to 80% | – | – | – | – | –
6 | Cc1snnc1/C=C(\NC(=O)c1ccccc1)C(=O)O [Compound 70, (Z)-2-benzoylamino-3-[4-(5-methyl-1,2,3-thiadiazol)]propenoic acid] | 17% | 14% | 190 to 192 °C | 13% | 18% | 3% | 0% | 44% | 24% | 37% | 21% | 12% | 14% | 37% | – | – | – | – | – | –
7 | Cc1nnsc1/C=C(\NC(=O)c1ccccc1)C(=O)O [Compound 71, (Z)-2-benzoylamino-3-[5-(4-methyl-1,2,3-thiadiazol)]propenoic acid] | 53% | 14% | 215 to 217 °C | 21% | 18% | 67% | 6% | 47% | 24% | 27% | 86% | 12% | 9% | 0% | – | 86% | – | – | – | –
8 | CC(C)(C)OC(=O)N1CCC(c2nc(/C=C3\N=C(c4ccccc4)OC3=O)cs2)CC1 [Compound 73] | 11% | 36% | 189 to 191 °C | 24% | 24% | 59% | 19% | 89% | 16% | 8% | 23% | 10% | 20% | 0% | 80 to 95% | – | – | – | – | –
9 | CC(C)(C)OC(=O)N1CCC(c2nc(/C=C(\NC(=O)c3ccccc3)C(=O)O)cs2)CC1 [Compound 74, (Z)-2-benzoylamino-3-[4-[2-[4-(1-Boc-piperidine)]thiazol]]propenoic acid] | 48% | 36% | 125 to 127 °C | 40% | 44% | 0% | 32% | 89% | 39% | 63% | 42% | 41% | 38% | 3% | 80 to 95% | – | 40% | 44% | 41% | –
10 | Cc1nnsc1/C=C1\N=C(c2ccccc2)OC1=O [Compound 77, (4Z)-4-[5-(4-methyl-1,2,3-thiadiazol)ethenyl]-2-phenyl-1,3-oxazol-5-(4H)-one] | 40% | 11% | 196 to 198 °C | 16% | 23% | 0% | 6% | 47% | 24% | 44% | 43% | 12% | 14% | 0% | 47% | – | – | – | – | –
11 | Cc1snnc1/C=C1\N=C(c2ccccc2)OC1=O [Compound 78, (4Z)-4-[4-(5-methyl-1,2,3-thiadiazol)ethenyl]-2-phenyl-1,3-oxazol-5-(4H)-one] | 0% | 29% | 149 to 151 °C | 26% | 18% | 47% | 15% | 53% | 21% | 68% | 57% | 26% | 3% | 0% | – | 57% | 26% | – | 26% | 29%
